Results reported in publication PMC5846726, “Characterization of the Mel1c melatoninergic receptor in platypus (Ornithorhynchus anatinus)” (PLoS ONE, 2018).
Where two headings read alike, the source gives them in different places.

Assays:
[1] = biological target: hMT1 (Homo sapiens, UniProt P48039); assay: 2-[125I]-iodomelatonin competition binding, human MT1; parameters: hMT1: unit not given here
Experimental: (§1) This approach has been described very often by our laboratory and others. […] The results were expressed as Ki, taking into account the concentration of radioligand used in each experiment. […] The reaction was stopped by rapid filtration through GF/B Unifilters, followed by three successive washes with ice-cold buffer. Data were analyzed by using the program PRISM (GraphPad Software Inc., San Diego, CA). For saturation assays, the density of binding sites (Bmax) and the dissociation constant of the radioligand (KD) were calculated according to the Scatchard method. […] A similar protocol was used when the binding was performed on whole cells, as described by Legros et al.. As per Plos One policy, all the raw data–listings from radioactivity counter are attached as raw files (Supplementary Tables A to M in S1 Data).

[2] = biological target: T1, Xenopus Mel1C (Xenopus laevis, UniProt P49219); assay: 2-[125I]-iodomelatonin competition binding, membranes from stably transfected CHO cells, Xenopus Mel1c; settings: radioligand 2-[125I]-iodomelatonin
T1 construct: expressed in transfected cells
T1 sequence (P49219 1-420): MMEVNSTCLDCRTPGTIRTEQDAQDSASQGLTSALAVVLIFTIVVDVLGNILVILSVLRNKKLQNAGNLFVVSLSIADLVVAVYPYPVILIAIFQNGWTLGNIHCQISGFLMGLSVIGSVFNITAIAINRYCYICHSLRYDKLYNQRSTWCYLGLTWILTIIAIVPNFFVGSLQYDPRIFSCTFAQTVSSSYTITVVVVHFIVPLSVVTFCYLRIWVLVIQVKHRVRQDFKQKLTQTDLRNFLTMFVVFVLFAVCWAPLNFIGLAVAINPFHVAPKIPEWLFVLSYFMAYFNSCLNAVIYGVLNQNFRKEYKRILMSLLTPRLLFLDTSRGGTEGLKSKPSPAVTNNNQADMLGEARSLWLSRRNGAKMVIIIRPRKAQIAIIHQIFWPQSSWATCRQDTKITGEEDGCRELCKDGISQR
Experimental: (§2) CHO-Flp-In cells (Thermo Fisher Scientific, Waltham, USA) were cultivated in the presence of zeocin (0.1 mg/ml). The cells were cotransfected with either platypus (cloned sequence that will be submitted to GenBank) Mel1c/pcDNA5-FRT (platypus Mel1c) or X. laevis (NM 001087919.1) Mel1c/pcDNA5-FRT (clawed frog Mel1c) and Flp recombinase expression pOG44 plasmid using PEIpro (Invitrogen, Carlsbad, CA). CHO cells stably expressing platypus Mel1c or clawed frog Mel1c were selected using hygromycin (0.6 mg/ml). CHO-Flp-In-platypus Mel1c cells were grown in HAM F12 with 2 mM glutamine and supplemented with 10% fetal calf serum. Cells were selected using antibiotic pressure (hygromycin) for 72 h. […] After confirmation of the presence of the transgene, the cells were amplified up to 2 x 10^9 cells. This material was used to prepare the cell membranes used in further pharmacological experiments.
(§3) This standard procedure was described in a previous experiment with CHO cells expressing the sheep MT2 receptor [23]. […] The resulting pellet was suspended in 5 mM Tris/HCl (pH 7.4) containing 2 mM EDTA and homogenized using a Kinematica polytron. The homogenate was then centrifuged (20,000g, 30 min, 4°C) and the resulting pellet suspended in 75 mM Tris/HCl (pH 7.4) containing 2 mM EDTA and 12.5 mM MgCl2. The protein content was determined according to the method of Lowry et al. using the Bio-Rad kit (Bio-Rad SA, Ivry-sur-Seine, France). Aliquots of membrane preparations were stored in binding buffer (50 mM Tris/HCl, pH 7.4 containing 5 mM MgCl2 and 1 mM EDTA) at –80°C until use.
as §1

[3] = biological target: T2, Platypus Mel1C (Ornithorhynchus anatinus, UniProt A0A2P1K6N2); assay: 2-[125I]-iodomelatonin competition binding, membranes from stably transfected CHO cells, platypus Mel1c; settings: membranes from stably transfected CHO cells, radioligand 2-[125I]-iodomelatonin; for Ki: read-out: Platypus Mel1C (converted)
T2 sequence (A0A2P1K6N2 1-349): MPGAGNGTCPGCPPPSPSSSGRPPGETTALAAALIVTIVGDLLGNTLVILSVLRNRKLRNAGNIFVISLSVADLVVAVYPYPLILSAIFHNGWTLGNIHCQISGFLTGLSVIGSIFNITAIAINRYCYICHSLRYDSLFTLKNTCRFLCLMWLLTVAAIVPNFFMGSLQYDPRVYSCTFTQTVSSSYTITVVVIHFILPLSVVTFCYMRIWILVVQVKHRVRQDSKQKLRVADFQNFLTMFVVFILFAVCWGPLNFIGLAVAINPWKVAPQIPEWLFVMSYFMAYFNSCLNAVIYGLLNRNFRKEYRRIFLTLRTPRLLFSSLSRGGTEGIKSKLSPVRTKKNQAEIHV
Experimental: as §2, §3, §1

[4] = biological target: T3, hMT2 (Homo sapiens, UniProt P49286); assay: 2-[125I]-iodomelatonin competition binding, human MT2
T3 sequence (P49286 1-362): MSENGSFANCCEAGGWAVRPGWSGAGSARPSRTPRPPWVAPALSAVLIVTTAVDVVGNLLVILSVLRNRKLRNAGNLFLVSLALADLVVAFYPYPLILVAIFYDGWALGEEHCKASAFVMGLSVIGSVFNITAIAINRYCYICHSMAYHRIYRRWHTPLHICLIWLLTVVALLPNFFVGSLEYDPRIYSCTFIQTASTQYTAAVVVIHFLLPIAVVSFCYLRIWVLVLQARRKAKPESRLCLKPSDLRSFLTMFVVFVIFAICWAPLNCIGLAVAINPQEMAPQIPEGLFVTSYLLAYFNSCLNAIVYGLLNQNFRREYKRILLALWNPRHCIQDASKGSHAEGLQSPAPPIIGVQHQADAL
Experimental: as §1

[5] = biological target: T2, Platypus Mel1C; assay: 2-[125I]-iodomelatonin competition binding, transiently transfected COS7 cells, platypus Mel1c; settings: COS7 cells transiently transfected with Mel1c gene; radioligand 2-[125I]-iodomelatonin; two transfections, triplicate
Experimental: (§4) COS7 cells obtained from the American Type Culture Collection were maintained in DMEM GlutaMAX (Thermo Fisher Scientific, Waltham, USA) supplemented with 10% (v/v) fetal calf serum. Nucleofection of COS7 cells was performed according to the manufacturer's instructions using the Nucleofector machine (Amaxa, Cologne, Germany). Adherent COS7 cells were washed in phosphate-buffered saline (PBS), trypsinized, and gently resuspended in V nucleofection solution to a final concentration of 7 × 10^6 cells/100 μl. Next, 5 μg of pCIneo/Mel1c vector was mixed with 100 μl of the COS7 cell suspension, transferred to a […] electroporation cuvette, and nucleofected using program A024 and an Amaxa Nucleofector apparatus. Just after the nucleofection, 500 μl of media supplemented with 20% (v/v) fetal calf serum was added to the cell suspension and cultured in a humidified 37°C, 5% CO2 incubator for 20 minutes. Fourteen million cells were transferred to a T225 flask containing 50 ml of media supplemented with 20% (v/v) fetal calf serum and cultured in a humidified 37°C, 5% CO2 incubator. Two days after transfection, the cells were harvested in PBS, pelleted, and stored at -80°C until use.
as §1
(§5) To obtain stable expression of the receptor for future studies, a preliminary step involving transient expression of the receptor was performed. The Mel1c receptors from the three species were expressed in transiently transfected COS7 cells. A limited number of compounds were tested in order to gain a preliminary perception of the characteristics of Mel1c from these species.

[6] = biological target: T4, G. gallus Mel1c receptor (Gallus gallus, UniProt P49288); assay: 2-[125I]-iodomelatonin competition binding, transiently transfected COS7 cells, chicken Mel1c; settings: COS7 cells transiently transfected with Mel1c gene; radioligand 2-[125I]-iodomelatonin; two transfections, triplicate
T4 construct: expressed in transfected cells; host or cells: COS7 (transient nucleofection, pCIneo vector)
T4 sequence (P49288 1-346): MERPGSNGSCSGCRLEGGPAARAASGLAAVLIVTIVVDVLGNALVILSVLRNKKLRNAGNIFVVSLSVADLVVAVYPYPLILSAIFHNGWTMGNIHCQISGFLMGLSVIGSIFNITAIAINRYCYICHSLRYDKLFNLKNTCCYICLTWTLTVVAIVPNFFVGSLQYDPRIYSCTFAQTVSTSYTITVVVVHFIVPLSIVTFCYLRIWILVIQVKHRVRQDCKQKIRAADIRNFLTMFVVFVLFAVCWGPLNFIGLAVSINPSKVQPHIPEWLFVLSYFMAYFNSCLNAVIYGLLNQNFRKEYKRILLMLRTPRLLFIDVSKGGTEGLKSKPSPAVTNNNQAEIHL
Experimental: as §4, §1, §5

[7] = biological target: T5, X. laevis Mel1c receptor (Xenopus laevis, UniProt P49219); assay: 2-[125I]-iodomelatonin competition binding, transiently transfected COS7 cells, Xenopus Mel1c; settings: COS7 cells transiently transfected with Mel1c gene, radioligand 2-[125I]-iodomelatonin, two transfections, triplicate
T5 construct: expressed in transfected cells; host or cells: COS7 (transient nucleofection, pCIneo vector)
T5 sequence (P49219 1-354 isoform P49219-2): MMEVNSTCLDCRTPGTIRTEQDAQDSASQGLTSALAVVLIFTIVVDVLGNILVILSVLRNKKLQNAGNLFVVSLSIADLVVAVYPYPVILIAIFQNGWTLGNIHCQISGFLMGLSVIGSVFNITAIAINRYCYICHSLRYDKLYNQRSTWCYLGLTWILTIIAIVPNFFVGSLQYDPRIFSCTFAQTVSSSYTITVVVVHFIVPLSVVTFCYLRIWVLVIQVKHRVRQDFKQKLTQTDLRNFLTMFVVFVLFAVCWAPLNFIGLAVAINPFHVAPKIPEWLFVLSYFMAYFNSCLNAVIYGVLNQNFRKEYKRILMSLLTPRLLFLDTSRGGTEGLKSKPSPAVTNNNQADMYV
Experimental: as §4, §1, §5

[8] = membranes from stably transfected CHO cells, radioligand 2-[125I]-iodomelatonin
[9] = membranes from stably transfected CHO cells, radioligand 2-[125I]-iodomelatonin, read-out: hMT1 (converted)
[10] = membranes from stably transfected CHO cells, radioligand 2-[125I]-iodomelatonin, read-out: hMT2 (converted)

hMT1, sequence (P48039 whole entry): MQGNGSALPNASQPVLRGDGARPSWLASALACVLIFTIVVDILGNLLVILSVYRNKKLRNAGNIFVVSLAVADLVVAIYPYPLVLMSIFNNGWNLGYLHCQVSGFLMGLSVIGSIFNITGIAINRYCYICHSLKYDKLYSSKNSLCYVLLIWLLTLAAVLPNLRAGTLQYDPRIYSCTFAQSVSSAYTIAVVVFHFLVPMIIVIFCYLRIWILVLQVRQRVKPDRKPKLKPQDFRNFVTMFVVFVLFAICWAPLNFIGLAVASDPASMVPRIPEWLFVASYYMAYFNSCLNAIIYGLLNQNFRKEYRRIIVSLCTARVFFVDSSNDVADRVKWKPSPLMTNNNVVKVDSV

Compound	Ki [1, 9] [nM]	Ki [2] [nM]	Ki [3] [nM]	Ki [4, 10] [nM]	other results
2-(2-[(2-iodo-4,5-dimethoxyphenyl)methyl]-4,5-dimethoxy phenyl [DIV880]	–	–	–	–	hMT1 [1, 8]: 6.1; pKi [2]: 5.9; pKi [3]: 6.2; hMT2 [4, 8]: 8.0
COc1ccc2[nH]c(I)c(CCNC(C)=O)c2c1 [2-Iodomelatonin, 2-iodomelatonin]	–	–	–	–	pKi Ornithorhyncus anatinus [5]: 10.2; pKi Gallus gallus [6]: 9.8; pKi Xenopus laevis [7]: 10.0
COc1ccc2[nH]cc(CCNC(C)=O)c2c1I [4-Iodomelatonin, N-[2-(4-iodo-5-methoxy-1H-indol-3-yl)ethyl]acetamide]	15.8	251	100	12.6	–
COc1cc2c(CCNC(C)=O)c[nH]c2cc1I [6-Iodomelatonin, N-[2-(6-iodo-5-methoxy-1H-indol-3-yl)ethyl]acetamide]	1.58	7.94	3.98	2.51	–
COc1cc(I)c2[nH]cc(CCNC(C)=O)c2c1 [7-Iodomelatonin]	–	–	–	–	hMT1 [1]: 7.3; pKi [2]: 7.3; pKi [3]: 7.5; hMT2 [4]: 7.3
COc1ccc2cccc(CCNC(C)=O)c2c1 [Agomelatin ®, N-(2-(7-methoxynaphthalen-1-yl)ethyl)acetamide]	–	0.794	0.398	–	pKi Ornithorhyncus anatinus [5]: 9.6; Ki ([7]; read-out: pKi Xenopus laevis (converted)): 0.631 nM
COc1ccc(CCN(C)CCCC(C#N)(c2cc(OC)c(OC)c(OC)c2)C(C)C)cc1OC (stereo not drawn) [D600, methoxyverapamil]	100	2000	2000	> 10000	–
O=C(NCCc1cccc2ccccc12)C1CCC1 [S20928, (N-[2-(1-naphthyl)ethyl]cyclobutanecarboxamide)]	79.4	1260	794	79.4	–
COc1ccc2ncn(CCNC(C)=O)c2c1 [S21278, N-[2-(6-methoxybenzimidazol-1-yl)ethyl]acetamide]	631	1580	2000	631	–
COc1cc2c(CCNC(C)=O)c(I)[nH]c2cc1[N+](=O)[O-] [S27128, N-[2-(2-iodo-5-methoxy-6-nitro-1H-indol-3-yl)ethyl]acetamide]	1.26	2.51	1	–	–
COc1ccc2[nH]c(-c3cccc4ccccc34)c(CCNC(=O)CI)c2n1 [S70254]	–	–	–	–	hMT1 [1, 8]: 7.0; pKi Ornithorhyncus anatinus [5]: 6.6; pKi [2]: 6.3; pKi Gallus gallus [6]: 6.6; pKi Xenopus laevis [7]: 6.8; hMT2 [4, 8]: 9.0
COCC(CNC(C)=O)c1cccc2ccc(OC)cc12 (stereo not drawn) [S73893, N-[3-methoxy-2-(7-methoxy-1-naphthyl)propyl]acetamide]	3.98	39.8	20	7.94	–
COc1ccc2cccc(C(CO)CNC(=O)CF)c2c1 (stereo not drawn) [S75436, 2-fluoro-N-[3-hydroxy-2-(7-methoxy-1-naphthyl)propyl]acetamide]	–	15.8	6.31	–	Ki [1]: 12.6 nM; Ki [4]: 1.26 nM
COc1ccc2[nH]cc(CCNC(=O)CI)c2c1 [SD6, N-[2-(5-methoxy-1H-indol-3-yl)ethyl]iodoacetamide]	–	0.501	0.398	–	–
(S)-N-(2-(1,6,7,8-tetrahydro-2H-indeno-(5,4)furan-8-yl)ethyl)propionamide [Ramelteon ®]	–	–	–	–	hMT1 [1, 8]: 10.1; pKi Ornithorhyncus anatinus [5]: 10.1; Xenopus Mel1C [2]: 9.9; pKi Gallus gallus [6]: 9.8; pKi Xenopus laevis [7]: 10.1; Platypus Mel1C [3]: 9.9
